The text below walks through data of US11771709B2, “ALK protein degradation agent and anti-tumor application thereof” (ShanghaiTech University, priority 2017, dated 2023).

Assay type in all cases: cell-based
Test [1] addresses T1, ALK protein in SR (NPM-ALK) cells (Homo sapiens, UniProt Q9UM73).
T1 construct: NPM (nucleophosmin, NPM1, P06748) fusion partner; host or cells: SR (ALCL) cells; the other entry of the earlier key: NPM1 (P06748, Nucleophosmin)
As to the kind of experiment: Western blot of ALK protein level (degradation, DC50), ALK phosphorylation and downstream signaling in SR cells. The note with it: for DC50 (nM) in SR / DC50: ALK protein degradation in SR cells. Background: In western blotting, separated proteins are transferred to a membrane and probed.

In test [2] the test system is SR (NPM-ALK) cells. In words: Growth inhibition IC50 in ALCL SR cells (CCK8/WST, 72 hours). The note with it: SR cells, WST.
Procedure: SR (NPM-ALK) and NCI-H2228 (EML4-ALK, V3) cells were purchased from ATCC. […] All Cells were cultured in RPMI1640 medium with 10% FBS and Penicillin-Streptomycin in 37° C. incubator with 5% CO2.
Cells were seeded at specific density in 96 well plates one day before treatment. […] Viable cells were measured via CCK8 reagent and IC50s were calculated via Prism Graphad. Experiments were repeated at least three times.
Test [3] concerns the target T2, ALK protein in H3122 (EML4-ALK) cells (Homo sapiens, UniProt Q9UM73).
T2 construct: EML4 (Echinoderm microtubule-associated protein-like 4, Q9HC35) fusion partner, variant 1; host or cells: NCI-H3122 lung adenocarcinoma cells; the other entry of the earlier key: EML4 (Q9HC35, Echinoderm microtubule-associated protein-like 4)
In words: Western blot of ALK protein level (degradation, DC50), ALK phosphorylation and downstream signaling in H3122 cells. The note with it: ALK protein degradation in H3122 cells.

[4] abbreviates: 72 h, Brigatinib-based PROTAD molecules (Table 3).
Where [5] appears, read: Alectinib based ALK PROTAD compounds (Table 4).

As usually defined, the IC50 is the concentration at which inhibition is half-maximal. Broadly, the DC50 is the concentration at which degradation of the target reaches its halfway point. High values mean a less potent degrader, low ones a more potent degrader.

T1 sequence (Q9UM73 with tags, fused parts or gaps): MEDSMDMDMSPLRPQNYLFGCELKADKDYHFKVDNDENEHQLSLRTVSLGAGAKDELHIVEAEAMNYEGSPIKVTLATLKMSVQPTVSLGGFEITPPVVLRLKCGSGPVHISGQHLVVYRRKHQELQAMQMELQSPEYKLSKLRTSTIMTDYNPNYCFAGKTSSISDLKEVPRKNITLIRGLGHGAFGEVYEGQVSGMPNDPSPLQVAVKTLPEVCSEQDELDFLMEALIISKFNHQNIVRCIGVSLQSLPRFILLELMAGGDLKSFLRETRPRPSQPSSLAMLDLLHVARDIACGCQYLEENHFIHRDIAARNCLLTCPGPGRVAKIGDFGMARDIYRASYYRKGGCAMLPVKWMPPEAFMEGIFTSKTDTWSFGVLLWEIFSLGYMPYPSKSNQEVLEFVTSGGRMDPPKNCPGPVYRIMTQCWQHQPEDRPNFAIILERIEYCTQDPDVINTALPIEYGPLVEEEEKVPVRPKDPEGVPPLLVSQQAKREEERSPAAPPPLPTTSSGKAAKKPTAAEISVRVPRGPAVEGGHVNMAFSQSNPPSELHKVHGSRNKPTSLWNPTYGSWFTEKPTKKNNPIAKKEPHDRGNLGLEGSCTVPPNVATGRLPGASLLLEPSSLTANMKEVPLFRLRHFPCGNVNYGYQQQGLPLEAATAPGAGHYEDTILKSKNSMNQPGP
T2 sequence (Q9UM73 with tags, fused parts or gaps): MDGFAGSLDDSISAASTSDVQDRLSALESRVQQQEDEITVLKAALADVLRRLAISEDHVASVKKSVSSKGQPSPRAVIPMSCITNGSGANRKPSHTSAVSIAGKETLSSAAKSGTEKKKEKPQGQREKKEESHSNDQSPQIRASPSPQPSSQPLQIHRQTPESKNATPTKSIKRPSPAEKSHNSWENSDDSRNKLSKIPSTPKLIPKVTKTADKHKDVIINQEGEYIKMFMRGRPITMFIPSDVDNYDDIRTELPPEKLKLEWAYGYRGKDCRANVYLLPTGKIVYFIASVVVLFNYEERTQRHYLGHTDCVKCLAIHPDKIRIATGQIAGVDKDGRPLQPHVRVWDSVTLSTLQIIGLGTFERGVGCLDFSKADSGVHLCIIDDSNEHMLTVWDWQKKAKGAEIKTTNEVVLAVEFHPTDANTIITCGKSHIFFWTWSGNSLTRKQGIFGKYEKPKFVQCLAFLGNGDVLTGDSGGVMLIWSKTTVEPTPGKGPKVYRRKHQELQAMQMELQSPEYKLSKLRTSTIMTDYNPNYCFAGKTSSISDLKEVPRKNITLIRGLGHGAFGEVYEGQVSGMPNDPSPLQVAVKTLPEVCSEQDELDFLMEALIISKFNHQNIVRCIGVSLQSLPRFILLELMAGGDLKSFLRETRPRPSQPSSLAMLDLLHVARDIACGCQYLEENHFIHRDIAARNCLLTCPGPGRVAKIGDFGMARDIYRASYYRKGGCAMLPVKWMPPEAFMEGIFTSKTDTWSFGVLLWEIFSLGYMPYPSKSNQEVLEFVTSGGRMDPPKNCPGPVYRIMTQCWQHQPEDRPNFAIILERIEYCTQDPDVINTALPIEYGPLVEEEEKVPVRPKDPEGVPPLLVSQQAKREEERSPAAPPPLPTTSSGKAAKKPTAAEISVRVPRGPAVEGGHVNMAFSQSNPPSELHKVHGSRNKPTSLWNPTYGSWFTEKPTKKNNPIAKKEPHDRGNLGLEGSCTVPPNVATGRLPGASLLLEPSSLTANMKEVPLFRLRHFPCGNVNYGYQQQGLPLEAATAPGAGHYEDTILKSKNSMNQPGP

`COc1cc(N2CCC(N)CC2)ccc1Nc1ncc(Cl)c(Nc2ccccc2P(C)(C)=O)n1` [Brigatinib Analogue B(SIAIS151101), (2-((2-((4-(4-aminopiperidin-1-yl)-2-methoxyphenyl)amino)-5-chloropyrimidin-4-yl)amino)phenyl)dimethylphosphine oxide]: the “DC50 (nM) in SR” value in test [1] is “Not degrade”. The molecule further returned an IC50 in test [2] (setting [4]) of 1.7 ± 1.4 nM. For the same molecule, the “DC50 (nM)) in H3122” value in test [3] is “Not degrade”.

Take `COc1cc(N2CCC(N3CCNCC3)CC2)ccc1Nc1ncc(Cl)c(Nc2ccccc2P(C)(C)=O)n1` [Brigatinib Analogue C(SIAIS164005), (2-((5-chloro-2-((2-methoxy-4-(4-(piperazin-1-yl)piperidin-1-yl)phenyl)amino)pyrimidin-4-yl)amino)phenyl)dimethylphosphine oxide]: in test [1], the “DC50 (nM) in SR” value is recorded as “Not degrade”. In test [1] (SR cells, western blot, 16 hours, up to 500 nM), the ALK protein degradation entry is on record as “did not degrade ALK protein”. The same molecule returned a 50% inhibitory concentration (IC50) in test [2] (setting [4]) of 6.7 ± 3.1 nM. In addition, the “DC50 (nM)) in H3122” value in test [3] was “Not degrade”.

Turning to `COc1cc(N2CCC(NC(=O)CCCCCCNc3cccc4c3C(=O)N(C3CCC(=O)NC3=O)C4=O)CC2)ccc1Nc1ncc(Cl)c(Nc2ccccc2P(C)(C)=O)n1` (centres unmarked) [SIAIS151123, N-(1-(4-((5-chloro-4-((2-(dimethylphosphoryl)phenyl)amino)pyrimidin-2-yl)amino)-3-methoxyphenyl)piperidin-4-yl)-7-((2-(2,6-dioxopiperidin-3-yl)-1,3-dioxoisoindolin-4-yl)amino)heptanamide], the DC50 lay within 0.1 to 2 nM in test [1] and 1 to 50 nM in test [3]. For the same molecule, in test [2] (setting [4]), the 50% inhibitory concentration (IC50) is 1.9 ± 1.5 nM.

Take `COc1cc(N2CCC(N3CCN(C(=O)CCOCCOCCOCCNc4cccc5c4C(=O)N(C4CCC(=O)NC4=O)C5=O)CC3)CC2)ccc1Nc1ncc(Cl)c(Nc2ccccc2P(C)(C)=O)n1` (centres unmarked) [SIAIS164009, 4-((2-(2-(2-(3-(4-(1-(4-((5-chloro-4-((2-(dimethylphosphoryl)phenyl)amino)pyrimidin-2-yl)amino)-3-methoxyphenyl)piperidin-4-yl)piperazin-1-yl)-3-oxopropoxy)ethoxy)ethoxy)ethyl)amino)-2-(2,6-dioxopiperidin-3-yl)isoindoline-1,3-dione]: the half-maximal degradation concentration (DC50) in test [1] and in test [3] was 1 to 10 nM in each case. Also, in test [1] (SR cells, western blot), the “concentration at which ALK proteins were degraded” value is 1 nM. Inhibition in test [2] (setting [4]) was half-maximal at 5.3 ± 1.7 nM (IC50).

Turning to `CCc1cc2c(cc1N1CCN(C(=O)CCOCCOCCNc3cccc4c3C(=O)N(C3CCC(=O)NC3=O)C4=O)CC1)C(C)(C)c1[nH]c3cc(C#N)ccc3c1C2=O` (centres unmarked) [SIAIS164012, 8-(4-(3-(2-(2-((2-(2,6-dioxopiperidin-3-yl)-1,3-dioxoisoindolin-4-yl)amino)ethoxy)ethoxy)propanoyl)piperazin-1-yl)-9-ethyl-6,6-dimethyl-11-oxo-6,11-dihydro-5H-benzo[b]carbazole-3-carbonitrile], the DC50 in test [1] and in test [3] was 1 to 50 nM throughout. The molecule further came in with a half-inhibitory concentration (IC50) in test [2] (setting [5]) of 48.9 nM.

On to `COc1cc(N2CCC(N3CCN(C(=O)CCOCCOCCOCCOCCNc4cccc5c4C(=O)N(C4CCC(=O)NC4=O)C5=O)CC3)CC2)ccc1Nc1ncc(Cl)c(Nc2ccccc2P(C)(C)=O)n1` (centres unmarked) [SIAIS164016, 4-((15-(4-(1-(4-((5-chloro-4-((2-(dimethylphosphoryl)phenyl)amino)pyrimidin-2-yl)amino)-3-methoxyphenyl)piperidin-4-yl)piperazin-1-yl)-15-oxo-3,6,9,12-tetraoxapentadecyl)amino)-2-(2,6-dioxopiperidin-3-yl)isoindoline-1,3-dione], for which the half-maximal degradation concentration (DC50) in test [1] and in test [3] was 1 to 10 nM in each case. The molecule also displayed an IC50 in test [2] (setting [4]) of 11.2 ± 6.8 nM.

As to `COc1cc(N2CCC(N3CCN(C(=O)CCOCCOCCOCCOCCOCCNc4cccc5c4C(=O)N(C4CCC(=O)NC4=O)C5=O)CC3)CC2)ccc1Nc1ncc(Cl)c(Nc2ccccc2P(C)(C)=O)n1` (stereo not drawn) [SIAIS164017, 4-((18-(4-(1-(4-((5-chloro-4-((2-(dimethylphosphoryl)phenyl)amino)pyrimidin-2-yl)amino)-3-methoxyphenyl)piperidin-4-yl)piperazin-l-yl)-18-oxo-3,6,9,12,15-pentaoxaoctadecyl)amino)-2-(2,6-dioxopiperidin-3-yl)isoindoline-1,3-dione], in test [1], the DC50 was in the range of 100 to 500 nM. In test [2] (setting [4]), the IC50 came to 14 ± 8.6 nM. Moreover, in test [3], the “DC50 (nM)) in H3122” value lay in the range of 0.02 to 20 nM.

`COc1cc(N2CCC(N3CCN(C(=O)CCNc4cccc5c4C(=O)N(C4CCC(=O)NC4=O)C5=O)CC3)CC2)ccc1Nc1ncc(Cl)c(Nc2ccccc2P(C)(C)=O)n1` (centres unmarked) [SIAIS164019, 4-((3-(4-(1-(4-((5-chloro-4-((2-(dimethylphosphoryl)phenyl)amino)pyrimidin-2-yl)amino)-3-methoxyphenyl)piperidin-4-yl)piperazin-1-yl)-3-oxopropyl)amino)-2-(2,6-dioxopiperidin-3-yl)isoindoline-1,3-dione]: the 50% degradation concentration (DC50) in test [1] fell in the range of 1 to 10 nM; in test [3], 10 to 20 nM. Besides, in test [2] (setting [4]), the 50% inhibitory concentration (IC50) worked out at 9.6 ± 8 nM.

`COc1cc(N2CCC(N3CCN(C(=O)CCCNc4cccc5c4C(=O)N(C4CCC(=O)NC4=O)C5=O)CC3)CC2)ccc1Nc1ncc(Cl)c(Nc2ccccc2P(C)(C)=O)n1` (centres unmarked) [SIAIS164020, 4-((4-(4-(1-(4-((5-chloro-4-((2-(dimethylphosphoryl)phenyl)amino)pyrimidin-2-yl)amino)-3-methoxyphenyl)piperidin-4-yl)piperazin-1-yl)-4-oxobutyl)amino)-2-(2,6-dioxopiperidin-3-yl)isoindoline-1,3-dione]: the 50% degradation concentration (DC50) is 0.5 to 10 nM in test [1] and 1 to 50 nM in test [3]. Besides, the IC50 in test [2] (setting [4]) came out at 2.9 ± 1.5 nM.

On to `CCc1cc2c(cc1N1CCN(C(=O)CNc3cccc4c3C(=O)N(C3CCC(=O)NC3=O)C4=O)CC1)C(C)(C)c1[nH]c3cc(C#N)ccc3c1C2=O` (centres unmarked) [SIAIS164028, 8-(4-((2-(2,6-dioxopiperidin-3-yl)-1,3-dioxoisoindolin-4-yl)glycyl)piperazin-1-yl)-9-ethyl-6,6-dimethyl-11-oxo-6,11-dihydro-5H-benzo[b]carbazole-3-carbonitrile], for which the figures for the 50% degradation concentration (DC50) in test [1] and in test [3] were 1 to 50 nM and 1 to 10 nM, respectively. In test [2] (setting [5]), this molecule returned an IC50 of 19.7 nM.

As for `COc1cc(N2CCC(N3CCN(C(=O)CCOCCOCCC(=O)N[C@H](C(=O)N4C[C@H](O)C[C@H]4C(=O)NCc4ccc(-c5scnc5C)cc4)C(C)(C)C)CC3)CC2)ccc1Nc1ncc(Cl)c(Nc2ccccc2P(C)(C)=O)n1` [SIAIS164032, (2S,4R)-1-((S)-2-(3-(2-(3-(4-(1-(4-((5-chloro-4-((2-(dimethylphosphoryl)phenyl)amino)pyrimidin-2-yl)amino)-3-methoxyphenyl)piperidin-4-yl)piperazin-1-yl)-3-oxopropoxy)ethoxy)propanamido)-3,3-dimethylbutanoyl)-4-hydroxy-N-(4-(4-methylthiazol-5-yl)benzyl)pyrrolidine-2-carboxamide], the DC50 in test [1] lay within 100 to 500 nM; in test [3] it was 20 to 100 nM. This molecule also registered a half-maximal inhibitory concentration (IC50) in test [2] (setting [4]) of 54.5 ± 31.2 nM.

Consider `COc1cc(N2CCC(N3CCN(C(=O)CCOCCOCCOCCC(=O)N[C@H](C(=O)N4C[C@H](O)C[C@H]4C(=O)NCc4ccc(-c5scnc5C)cc4)C(C)(C)C)CC3)CC2)ccc1Nc1ncc(Cl)c(Nc2ccccc2P(C)(C)=O)n1` [SIAIS164033, (2S,4R)-1-((S)-2-(tert-butyl)-16-(4-(1-(4-((5-chloro-4-((2-(dimethylphosphoryl)phenyl)amino)pyrimidin-2-yl)amino)-3-methoxyphenyl)piperidin-4-yl)piperazin-1-yl)-4,16-dioxo-7,10,13-trioxa-3-azahexadecanoyl)-4-hydroxy-N-(4-(4-methylthiazol-5-yl)benzyl)pyrrolidine-2-carboxamide], for which the 50% degradation concentration (DC50) in test [1] and in test [3] was 100 to 500 nM throughout. The molecule also yielded an IC50 in test [2] (setting [4]) of 50.1 ± 34.9 nM.

`COc1cc(N2CCN(C(=O)CCCC(=O)N[C@H](C(=O)N3C[C@H](O)C[C@H]3C(=O)NCc3ccc(-c4scnc4C)cc3)C(C)(C)C)CC2)ccc1Nc1ncc(Cl)c(Nc2ccccc2P(C)(C)=O)n1` [SIAIS1197147, (2S,4R)-1-((S)-2-(5-(4-(4-((5-chloro-4-((2-(dimethylphosphoryl)phenyl)amino)pyrimidin-2-yl)amino)-3-methoxyphenyl)piperazin-1-yl)-5-oxopentanamido)-3,3-dimethylbutanoyl)-4-hydroxy-N-(4-(4-methylthiazol-5-yl)benzyl)pyrrolidine-2-carboxamide]: in test [2] (setting [4]), it took 14.2 ± 8.2 nM to reach half-maximal inhibition (IC50). Moreover, the half-maximal degradation concentration (DC50) in test [3] was in the range of 20 to 100 nM.

Molecule `COc1cc(N2CCN(C(=O)CCCCC(=O)N[C@H](C(=O)N3C[C@H](O)C[C@H]3C(=O)NCc3ccc(-c4scnc4C)cc3)C(C)(C)C)CC2)ccc1Nc1ncc(Cl)c(Nc2ccccc2P(C)(C)=O)n1` [SIAIS1197149, (2S,4R)-1-((S)-2-(6-(4-(4-((5-chloro-4-((2-(dimethylphosphoryl)phenyl)amino)pyrimidin-2-yl)amino)-3-methoxyphenyl)piperazin-1-yl)-6-oxohexanamido)-3,3-dimethylbutanoyl)-4-hydroxy-N-(4-(4-methylthiazol-5-yl)benzyl)pyrrolidine-2-carboxamide] returned an IC50 in test [2] (setting [4]) of 8.2 ± 3.9 nM. Also, the DC50 in test [3] lay within 20 to 100 nM.

Consider `COc1cc(N2CCN(C(=O)CCCCCC(=O)N[C@H](C(=O)N3C[C@H](O)C[C@H]3C(=O)NCc3ccc(-c4scnc4C)cc3)C(C)(C)C)CC2)ccc1Nc1ncc(Cl)c(Nc2ccccc2P(C)(C)=O)n1` [SIAIS1197151, (2S,4R)-1-((S)-2-(7-(4-(4-((5-chloro-4-((2-(dimethylphosphoryl)phenyl)amino)pyrimidin-2-yl)amino)-3-methoxyphenyl)piperazin-1-yl)-7-oxoheptanamido)-3,3-dimethylbutanoyl)-4-hydroxy-N-(4-(4-methylthiazol-5-yl)benzyl)pyrrolidine-2-carboxamide], for which 16.7 ± 7.3 nM corresponded to half-maximal inhibition in test [2] (setting [4]) (IC50). Moreover, the DC50 in test [3] fell in the range of 20 to 100 nM.
